{"source": "patent US20140093513A1", "about": "“METHODS OF LOWERING PROPROTEIN CONVERSATE SUBTILISIN/KEXIN TYPE 9 (PCSK9)” (Catabasis Pharmaceuticals, Inc., priority 2012, published 2014)", "key": {"PCSK9": {"test_system": "PCSK9", "assay": "PCSK9 secretion assay in HepG2 cells (PCSK9 ELISA)", "format": "cell-based", "summary_of_the_method": "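HepG2 cells in serum-free DMEM with compound added in FBS (ethanol-matched) and incubated 16 hours, in triplicate. Secreted PCSK9 in supernatant measured by ELISA (A450), with AlamarBlue viability check. IC50 obtained from at least 6 concentrations.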"}, "[1]": {"test_system": "Zucker fa/fa Rat model of Dyslipidemia", "assay": "Plasma triglyceride level in the Zucker fa/fa rat model of dyslipidemia", "format": "in vivo", "settings": "Zucker rats, po qd, I-8 at 10, 30, 100 and 300 mg/kg; niacin/EPA 100/200 mg/kg; day 4 fed blood sample, FIG. 3", "procedure": "Male Zucker rats (HsdHlr: Zucker-Lepr̂fa) between 8-10 weeks of age were purchased from Harlan and maintained on Purina Rodent Diet (5001) for the duration of the study. Animals were randomized and assigned to treatment arms based on body weight and plasma triglyceride (TG) levels (n=8). Inclusion criteria for the study include body weight >300 grams and fed TG levels in plasma >800 mg/dL. Dosing will be initiated on day 1 and continue through day 5. Dosing will be daily (qd) by oral gavage (po) for all treatment arms (Compound I-8 was administered orally at 4 different doses, 10, 30, 100 and 300 mg/kg; in addition, a combination of niacin/EPA in a ratio of 100/200 mg/kg was also employed). Body weights will be measured for all rats on days 1 through 5. On day 4, a blood sample (fed) will be collected from each rat, processed for plasma and stored at −80° C. Plasma triglyceride level was determined from commercial kits using standard protocols. […] Because compound I-8 was able to lower fed plasma triglyceride, it is useful to treat dyslipidemia as well as other diseases such as type I hyperlipoproteinemia and type 5 hyperlipoproteinemia."}, "ApoE3Leiden mice": {"test_system": "ApoE3Leiden mice", "assay": "Plasma cholesterol and triglycerides in ApoE3Leiden mice on Western type diet, 2 and 4 weeks of treatment", "format": "in vivo", "settings": "female APOE*3Leiden mice, WTD, I-8 0.75% w/w, atorvastatin 0.0015% w/w in diet", "procedure": "The study was conducted using female APOE*3Leiden mice (groups of each n=10) and one untreated reference control group on chow (n=5). To induce dyslipidemia, a high cholesterol Western type diet containing 1% cholesterol, 15% cacao butter, 40.5% sucrose and 1% corn oil (WTD) was fed to the mice for a total experimental period of 20 weeks (of which 4 weeks are a run-in period).\nThe dyslipidemic mice were grouped on the basis of plasma cholesterol at t=0 assayed in 4 h fasting blood. Mice with low cholesterol after the run-in period were excluded so that homogenous experimental groups were obtained. A group of reference mice (n=5) remained on a chow diet during the complete study period (normolipidemic reference mice).\nThis mix was then added to the master mix (containing the rest of the ingredients) and mixed thoroughly. The diet was frozen to −20° C. On the subsequent day, the diet was broken into small pellets (approx 5 g per piece) and freeze dried, and stored in vacuum sealed bags (approx 500 g) at −20° C. until use. The diets were refreshed daily and unused diet was discarded.\n1) Body weight at −4, 0, 2, 4 weeks 2) Food intake (g/day/mouse) at 0, 2, 4 weeks (per cage) 3) Plasma total cholesterol at −4, 0, 2, 4 weeks (individually) 4) Plasma triglycerides at −4, 0, 2, 4 weeks (individually) 5) Lipoprotein profiles at 0 (pool of all animals) and 4 weeks (cholesterol distribution over VLDL, LDL and HDL-sized particles, analysis on group level).\nEDTA plasma was collected in weeks −4, 0, 2 and 4 weeks. Plasma cholesterol, plasma triglyceride levels and lipoprotein profileswere assayed immediately in fresh plasma."}, "ApoE*3 Leiden mice": {"test_system": "ApoE*3 Leiden mice", "assay": "Plasma lipids and liver weight of ApoE*3 Leiden mice on Western type diet, 16 weeks of treatment", "format": "in vivo", "settings": "I-8 in WTD at 7.5 g/kg", "procedure": "The same experimental design used in example 6 was used. Two treatment groups were used (n=15). The control animals were kept on a Western type diet (WTD) consisting of 1% cholesterol, 15% cacao butter, 40.5% sucrose, and 1% corn oil. For the treatment group, compound I-8 was administered in the above WTD at a ratio of 7.5 g/kg. Animals were maintained on the WTD or treatment group for 16 weeks. At the conclusion of the study, plasma cholesterol and triglyceride levels were recorded, as well as the weight of the liver. There was a significant decrease in plasma cholesterol, triglyceride levels as well as liver weight in the treatment group. After 16 weeks of treatment, the cholesterol level of the treatment group was 420 mg/dL, compared with a level of 750 mg/dL for the control group; the triglyceride level was 110 mg/dL, compared with a level of 160 mg/dL for the control group."}}}
{"smiles": "CC/C=C\\C/C=C\\C/C=C\\C/C=C\\C/C=C\\CCCC(=O)NCCNC(=O)c1cccnc1", "note": "[Compound I-8, N-(2-(5Z,8Z,11Z,14Z,17Z)-eicosa-5,8,11,14,17-pentaenamidoethyl)nicotinamide]", "values": [{"measurement": "PCSK9 levels in HepG2 cells incubated with atorvastatin", "setting": "PCSK9; HepG2 cells incubated with 10 μM of atorvastatin along with the test article, FIG. 2", "value": "decrease PCSK9 levels in a dose response manner"}, {"measurement": "IC50", "setting": "PCSK9; HepG2 cells, 16 hours incubation, at least 6 concentrations", "value": "< 25", "unit": "µM"}, {"measurement": "lowering of PCSK9", "setting": "PCSK9; HepG2 cells, at 25 and 50 μM, FIG. 1", "value": "significant lowering of PCSK9"}, {"measurement": "fed plasma triglyceride level", "setting": "[1]", "value": "dose dependent decrease"}, {"measurement": "plasma cholesterol at t=2 weeks", "setting": "ApoE3Leiden mice; 2 weeks of treatment, FIG. 4", "value": "statistically significant reduction"}, {"measurement": "plasma cholesterol after 4 weeks of treatment", "setting": "ApoE3Leiden mice; 4 weeks, FIG. 5", "value": "Comparable level of cholesterol reduction"}, {"measurement": "plasma triglyceride levels after 4 weeks of treatment", "setting": "ApoE3Leiden mice; 4 weeks, FIG. 6", "value": "significant reduction"}, {"measurement": "liver weight", "setting": "ApoE*3 Leiden mice; FIG. 7", "value": "statistically significant drop"}, {"measurement": "triglyceride level after 16 weeks of treatment", "setting": "ApoE*3 Leiden mice; control group 160 mg/dL", "value": 110, "unit": "mg/dL"}, {"measurement": "cholesterol level after 16 weeks of treatment", "setting": "ApoE*3 Leiden mice; control group 750 mg/dL", "value": 420, "unit": "mg/dL"}]}
